In EP4480494A1, “COMPOSITION FOR USE IN TREATMENT OF CANCER, INFLAMMATORY DISEASES, OR OBESITY, AND USE THEREOF” (National University Corporation Tokyo Medical and Dental …, priority 2022, dated 2023):

Columns and labels:
ZCCHC24 [1] = assay: Compound screening using HiBiT tag knock-in cells (ZCCHC24 expression reporter); format: cell-based, human; settings: LOPAC compounds at 1 µM for 24 hours; HiBiT tag-inserted MDAMB231 reporter cells
Description: HiBiT tagged-MDAMB231 cells with were produced using the procedure below. First, crRNA (*14 (SEQ ID NO: 14) in Table 1) (IDT) was resuspended in the Nuclease-Free Duplex buffer (IDT) to a final concentration of 100 µM, and incubated at 95°C for 5 minutes together with the same amount of tracrRNA (IDT). The oligo complex was then slowly cooled down to room temperature and incubated with ALT-R Cas9 Nuclease V3 (61 µM) (Integrated DNA Technologies, IA, USA) for 20 minutes at room temperature to form the Cas9 complex. Next, a single-stranded DNA oligo (*15 (SEQ ID NO: 15) in Table 1) (comprising the HiBiT sequence and a sequence complementary to the sequence of the C-terminal region of ZCCHC24) and Cas9 complex were co-transfected into MDAMB231 cells by an electroporation method using the NEPA21 super electroporator ([…]). After single cell cloning, cells inserted with the HiBiT tag were collected.
The compound screening procedure is as follows. HiBiT tag-inserted cells were plated at 1 × 10^4 cells in a 96-well plate, cultured for 24 hours, and then reacted with a low molecular compound library (LOPAC; Sigma Aldrich) at 1 µM (final concentration) for 24 hours. After the culture medium was discarded, cells were incubated with 12.5 µL PBS, 12.5 µL lysis buffer (Promega), 0.5 µL substrate (Promega), and 0.25 µL LgBiT (Promega) for 10 minutes at room temperature in the dark. The luminescence intensity was measured using ARVO X3 (Perkin Elmer).
As mentioned above, ZCCHC24 is strongly expressed in cancer stem cell-like cells, and maintains the expression of genes important for maintaining cancer stemness by directly binding to the mRNA of these genes. Therefore, in order to clarify the expression induction mechanism of ZCCHC24, labeled reporter cells were created by inserting a HiBiT tag into the C terminus of ZCCHC24, 1280 types of compounds in LOPAC (Sigma Aldrich) were administered to these reporter cells at a concentration of 1 µM for 24 hours, and compound screening was performed (Figure 17A). […]

ZCCHC24 [2] = assay: cells; format: cell-based; settings: Homo sapiens; HiBiT tag-inserted cells, 24 hours; read-out: EC50 concentration for the maximal increase in the ZCCHC24 expression
Description: 1 × 10^4 HiBiT tag-inserted cells were seeded in a 96-well plate. […] After 24 hours, the medium was discarded, and 12.5 µL PBS, 12.5 µL Lytic Buffer from the HiBiT kit (Promega), 0.5 µL substrate, and 0.25 µL LgBiT were added. After 10 minutes of reaction at room temperature, luminescence was measured using ARVO X3 (Perkin Elmer).

MDAMB231 = assay: cells; format: cell-based; settings: Homo sapiens, MDA-MB-231; MDAMB231, 48 hours, Cell Titer Glo; read-out: IC50 for maximal cell survival inhibition
Description: 2 × 10^3 HiBiT tag-inserted cells were seeded in a 96-well plate. […] After 48 hours, 20 µL of Cell Titer Glo (Promega) was added. After 30 minutes of reaction at 37°C, the […] was measured using ARVO X3 (Perkin Elmer).

ZEB1 = assay: qPCR analysis on JQ1-treated MDAMB231; format: cell-based, human; settings: MDAMB231, 100 nM JQ1, 24 hours
MDAMB231 cells = format: cell-based, human; settings: 100 nM JQ1, 1 µM PD407824 or both, 24 hours, CD44/NRP1 staining
Description: 2 × 10^5 MDAMB231 cells were seeded in a 6-well plate. […] Twenty-four hours later, cells were collected, stained with CD44-PE (IM7, Biolegend) and NRP1-APC (FAB3870A, R&D), and subjected to FACS analysis using FACS Calibur (BD).

`COc1cc2c[n+](C)c3c4cc5c(cc4ccc3c2cc1OC)OCO5` [nitidine] was tested, and the “Z score (ZCCHC24 expression)” value (ZCCHC24 [1]) was “up-regulators (compounds with Z score > 3.0 above were defined as up-regulators)”.

In the case of `CC(=O)[C@]1(O)Cc2c(O)c3c(c(O)c2[C@@H](O[C@H]2C[C@H](N)[C@H](O)[C@H](C)O2)C1)C(=O)c1ccccc1C3=O` [idarubicin], the “Z score (ZCCHC24 expression)” value (ZCCHC24 [1]) is reported as “up-regulators (compounds with Z score > 3.0 above were defined as up-regulators)”.

For `CC[C@@]1(O)C(=O)OCc2c1cc1n(c2=O)Cc2cc3ccccc3nc2-1` [camptothecin], the “Z score (ZCCHC24 expression)” value (ZCCHC24 [1]) was “up-regulators (compounds with Z score > 3.0 above were defined as up-regulators)”.

For `Cc1sc2c(c1C)C(c1ccc(Cl)cc1)=NC(CC(=O)OC(C)(C)C)c1nnc(C)n1-2` (stereo not shown) [JQ1], the EC50 (ZCCHC24 [2]) was ~0.05 µM, the IC50 (MDAMB231) was ~0.1 µM and the “expression of ZEB1” value (ZEB1) was “dramatically increased”. For the same compound, the “cancer stem cell-like population” value (MDAMB231 cells) was “no decrease”.
